Assay results taken from patent publication US20040052845A1, “Hydrogel-driven drug dosage form” (priority 2003, published 2004).
Structures can show the parent of a compound that is named as a salt.

Assay: Aqueous solubility of the drug

| solubility (at pH 7) | Molecule | solubility (at pH 4) |
| --- | --- | --- |
| – | 4-[3-[4-(2-methylimidazol-1-yl) phenylthio] phenyl]-3,4,5,6-tetrahydro-2H-pyran-4-carboxamide hemifumarate [Drug 3] | 3.7 mgA/mL |
| 0.2 mg/mL | CN[C@H]1CC[C@@H](c2ccc(Cl)c(Cl)c2)c2ccccc21 [Drug 2, sertraline HCl] | – |
